Assay [1] relates to U937 cells. The experiment in a line: Cellular assay in U937 cells: activity of RIPK1 inhibitors on TNFα/zVAD.fmk-induced cell death (necroptosis), CellTiter 96 AQueous (MTS) readout. The format is cell-based. The note with it: Homo sapiens, U-937. An excerpt: Upon TNF-Receptor I ligation, Ser/Thr kinase RIPK1 is recruited to a transient receptor complex 1. Upon modification of RIPK1 which promotes activation of RIPK1, complex IIb can form, that involves recruitment of RIPK3 and MLKL (mixed lineage-kinase domain-like protein) which then translocates from the cytosol to the plasma membrane to execute cell death (Cai, Z. et al, Nat. Cell Biol. (2014) 16:55-65).
Cell death was quantified in 96 well plates by determination of the amount of live cell using a CellTiter 96 AQueous reagent (Promega), a calorimetric method to measure the number of live cells by reducing tetrazolium compound [3-(4,5-dimethylthiazol-2-yl)-5-(3-carboxymethoxyphenyl)-2-(4-sulfophenyl)-2H-tetrazolium, inner salt; MTS] into formazan. Absorbance of formazan was read at 490 nm. The inhibitory activity of the test compound was quantified in a concentration response curve (CRC) experiment.
Compounds were obtained as 10 mM stock solutions and were diluted 1 to 10 volumes with DMSO to yield a 1 mM solution. From this solution 2 μl were diluted with 998 μl growth medium. 100 μl of 2 μM compound solution was further diluted sequentially with a dilution factor of 2.5 by adding 150 μl growth medium. A total of 10 concentrations were tested ranging from 10 μM to 0.26 nM or from 1 μM to 0.07 nM.
U937 cells were cultured in RPMI1640 Glutamax and 10% heat inactivated FBS. 50 μl cell suspension containing 1×10^6 cells/ml supplemented with 50 μM zVAD.fmk (Benzyloxycarbonyl-Val-Ala-Asp (OMe) fluoromethylketone) and 100 ng/ml recombinant human TNF[…] were dispensed in each well of a 96-well plate. 50 μl of compound dilutions (described in Cellular assay in U937 cells) were added and the cell suspension incubated overnight (18 to 24 hrs) at 37° C., 5% CO2 in a humidified atmosphere (95% rH). High (no compound) and low control (no TNF[…], zVAD.fmk) were tested with 7 replicates; all compound concentrations were tested in duplicates on each experimental plate.
CellTiter 96 Aqueous reagent was mixed (100 μl PMS (phenazine methosulfate) solution/2 ml MTS (3-(4,5-[…])-5-(3-carboxymethoxyphenyl)-2-(4-sulfophenyl)-2H-tetrazolium, inner salt) solution) and 20 μl were added per well. After 4 hrs incubation at 37° C. (5% CO2 95% rH) optical density was measured at 490 nm on a microplate reader (Tecan Infinite M1000).
The % inhibition is expressed as percentage of the maximal inhibition value obtained in the absence of TNFα/zVAD.fmc.

The target of assay [2] is T1, hRIPK1 (aa 1-375) fusion protein (Homo sapiens, UniProt Q13546).
T1 construct: hRIPK1 (aa 1-375) fusion protein
T1 sequence (Q13546 1-375): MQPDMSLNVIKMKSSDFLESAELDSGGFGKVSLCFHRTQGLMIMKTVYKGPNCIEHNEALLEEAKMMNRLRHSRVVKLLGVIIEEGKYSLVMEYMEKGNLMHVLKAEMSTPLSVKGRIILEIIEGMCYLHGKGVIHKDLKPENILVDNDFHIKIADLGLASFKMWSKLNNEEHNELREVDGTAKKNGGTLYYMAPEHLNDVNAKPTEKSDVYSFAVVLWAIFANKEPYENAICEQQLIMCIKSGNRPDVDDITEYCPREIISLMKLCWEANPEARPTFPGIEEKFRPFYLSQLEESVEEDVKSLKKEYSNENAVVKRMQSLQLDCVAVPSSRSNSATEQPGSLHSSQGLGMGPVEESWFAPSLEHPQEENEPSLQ
The experiment in a line: ADP-Glo kinase assay: catalytic activity of RIPK1 (autophosphorylation, conversion of ATP to ADP). In kind it is biochemical. The protocol:
The catalytic activity of RIPK1 was measured by monitoring the conversion of Adenosine triphosphate (ATP) to Adenosine diphosphate (ADP) due to autophosphorylation using an ADP-Glo kinase kit (Promega, catalog no. V9104).
In detail, 2 μl recombinantly produced hRIPK1 (aa 1-375) fusion protein (end concentration 3.6 μg/ml) and 2 μl compound (end concentration 33300-1.69 nM; DMSO end concentration 1%) were incubated for 30 minutes at room temperature and then 2 μl ATP (ADP Glo kit, end concentration 50 μM) were added. After another 240 minutes incubation at room temperature, 5 μl Promega ADP-Glo reagent I was added to quench the reaction and deplete unconsumed ATP. After an incubation period of 30 minutes, 10 μl Promega ADP-Glo detection reagent II was added resulting in conversion of ADP to ATP, which generates a light-reaction between luciferase and luciferin. Luminescence was quantified after 30 minutes with a Pherastar FS (BMG LABTECH, Ortenberg).
The adjustment was obtained by nonlinear regression using the Levenberg Marquardt algorithm.
On the technique in general: ADP-Glo turns the ADP formed in a reaction into a luminescent signal.

Usually IC50 stands for the midpoint of a concentration-inhibition curve. Consider `N#Cc1cc(F)cc([C@@H]2CCON2C(=O)[C@H]2CC[C@H](Cc3ccc(CCO)c(F)c3)CC2)c1` [compound 279, trans-3-fluoro-5-[(3S)-2-[4-[[3-fluoro-4-(2-hydroxyethyl)phenyl]methyl]cyclohexanecarbonyl]isoxazolidin-3-yl]benzonitrile], for which the results for the half-inhibitory concentration (IC50) in assay [1] and in assay [2] were 0.009 µM and 0.007 µM, respectively.

`N#Cc1cncc([C@@H]2CCON2C(=O)[C@H]2CC[C@H](Cn3ccc4c(F)cc(C#N)cc43)CC2)c1` [compound 130, trans-1-((4-((S)-3-(5-cyanopyridin-3-yl)isoxazolidine-2-carbonyl)cyclohexyl)methyl)-4-fluoro-1H-indole-6-carbonitrile]: the 50% inhibitory concentration (IC50) in assay [1] came to 0.002 µM; in assay [2], 0.011 µM.

On to `N#Cc1cc(F)cc([C@@H]2CCON2C(=O)[C@H]2CC[C@H](Cn3cnc4cc(F)c(C(N)=O)cc43)CC2)c1` [compound 70, trans-1-((4-((S)-3-(3-cyano-5-fluorophenyl)isoxazolidine-2-carbonyl)cyclohexyl)methyl)-5-fluoro-1H-benzo[d]imidazole-6-carboxamide], for which the values for the IC50 in assay [1] and in assay [2] were 0.403 µM and 0.044 µM, respectively.

As for `Cc1cc(C[C@H]2CC[C@H](C(=O)N3OCC[C@H]3c3cc(F)cc(C#N)c3)CC2)cnn1` [compound 302, trans-3-fluoro-5-[(3S)-2-[4-[(6-methylpyridazin-4-yl)methyl]cyclohexanecarbonyl]isoxazolidin-3-yl]benzonitrile], the IC50 in assay [1] stood at 0.037 µM; in assay [2], 0.031 µM.

With `Cc1nc([C@@H]2CCON2C(=O)[C@H]2CC[C@H](Cc3ccc(C4(O)COC4)cc3)CC2)cs1` [compound 369, trans-{4-[4-(3-Hydroxy-oxetan-3-yl)-benzyl]-cyclohexyl}-[(S)-3-(2-methyl-thiazol-4-yl)-isoxazolidin-2-yl]-methanone], the figures for the IC50 in assay [1] and in assay [2] were 0.024 µM and 0.026 µM, respectively.

Turning to `Cc1nc2cc(C[C@H]3CC[C@H](C(=O)N4OCC[C@H]4c4cnccn4)CC3)ccn2n1` [compound 374, trans-[4-(2-Methyl-[1,2,4]triazolo[1,5-a]pyridin-7-ylmethyl)-cyclohexyl]-((S)-3-pyrazin-2-yl-isoxazolidin-2-yl)-methanone], the 50% inhibitory concentration (IC50) in assay [1] is 0.055 µM; in assay [2], 0.036 µM.

With `Cc1ncn(C[C@H]2CC[C@H](C(=O)N3OCC[C@H]3c3cc(F)cc(F)c3)CC2)c1C` [compound 83, trans-((S)-3-(3,5-difluorophenyl)isoxazolidin-2-yl)(4-((4,5-dimethyl-1H-imidazol-1-yl)methyl)cyclohexyl)methanone], the IC50 in assay [1] turned out to be 0.022 µM; in assay [2] it was 0.032 µM.

Regarding `Cc1ccc([C@@H]2CCON2C(=O)[C@H]2CC[C@H](Cc3cc(C)c4nnc(C)n4c3)CC2)cn1` [compound 365, trans-[4-(3,8-Dimethyl-[1,2,4]triazolo[4,3-a]pyridin-6-ylmethyl)-cyclohexyl]-[(S)-3-(6-methyl-pyridin-3-yl)-isoxazolidin-2-yl]-methanone], the IC50 was 0.071 µM in assay [1] and 0.097 µM in assay [2].

With `Cc1nn(C[C@H]2CC[C@H](C(=O)N3OCC[C@H]3c3cc(F)cc(F)c3)CC2)c2cc(C#N)cc(F)c12` [compound 101, trans-1-((4-((S)-3-(3,5-difluorophenyl)isoxazolidine-2-carbonyl)cyclohexyl)methyl)-4-fluoro-3-methyl-1H-indazole-6-carbonitrile], the concentration for half-maximal inhibition (IC50) was 0.004 µM in assay [1] and 0.018 µM in assay [2].

Turning to `Cc1nn(C[C@H]2CC[C@H](C(=O)N3OCC[C@H]3c3cc(F)cc(C#N)c3)CC2)c2cc(F)c(C#N)cc12` [compound 69, trans-1-((4-((S)-3-(3-cyano-5-fluorophenyl)isoxazolidine-2-carbonyl)cyclohexyl)methyl)-6-fluoro-3-methyl-1H-indazole-5-carbonitrile], the IC50 came out at 0.005 µM in assay [1] and 0.022 µM in assay [2].

For the compound `N#Cc1cc(F)cc([C@@H]2CCON2C(=O)[C@H]2CC[C@H](Cn3ccc4nc(C#N)ccc43)CC2)c1` [compound 99, trans-1-[[4-[(3S)-3-(3-cyano-5-fluoro-phenyl)isoxazolidine-2-carbonyl]cyclohexyl]methyl]pyrrolo[3,2-b]pyridine-5-carbonitrile], the IC50 came out at 0.033 µM in assay [1] and 0.037 µM in assay [2].

As for `N#Cc1cc(F)c2cnn(C[C@H]3CC[C@H](C(=O)N4OCC[C@H]4c4cc(F)cc(F)c4)CC3)c2c1` [compound 33, trans-1-((4-((S)-3-(3,5-difluorophenyl)isoxazolidine-2-carbonyl)cyclohexyl)methyl)-4-fluoro-1H-indazole-6-carbonitrile], the IC50 in assay [1] worked out at 0.002 µM; in assay [2], 0.019 µM.

Turning to `COc1cncc([C@@H]2CCON2C(=O)[C@H]2CC[C@H](Cn3ccc4ccc(C#N)cc43)CC2)n1` [compound 241, trans-1-[[4-[(3S)-3-(6-methoxypyrazin-2-yl)isoxazolidine-2-carbonyl]cyclohexyl]methyl]indole-6-carbonitrile], the values for the IC50 in assay [1] and in assay [2] were 0.028 µM and 0.148 µM, respectively.

`Cc1nccn1-c1cc(F)cc(C[C@H]2CC[C@H](C(=O)N3OCC[C@H]3c3cnccn3)CC2)c1` [compound 209, trans-[4-[[3-fluoro-5-(2-methylimidazol-1-yl)phenyl]methyl]cyclohexyl]-[(3S)-3-pyrazin-2-ylisoxazolidin-2-yl]methanone]: the results for the half-maximal inhibitory concentration (IC50) in assay [1] and in assay [2] were 0.054 µM and 0.022 µM, respectively.

As for `Cc1ccc(C[C@H]2CC[C@H](C(=O)N3OCC[C@H]3c3cncc(C#N)c3)CC2)cc1C(N)=O` [compound 158, trans-5-[[4-[(3S)-3-(5-cyano-3-pyridyl)isoxazolidine-2-carbonyl]cyclohexyl]methyl]-2-methyl-benzamide], the IC50 in assay [1] stood at 0.033 µM; in assay [2], 0.009 µM.

Turning to `O=C1NCc2ccc(C[C@H]3CC[C@H](C(=O)N4OCC[C@H]4c4ccc(F)cc4)CC3)cc21` [compound 154, trans-6-[[4-[(3S)-3-(4-fluorophenyl)isoxazolidine-2-carbonyl]cyclohexyl]methyl]isoindolin-1-one], the IC50 is 0.033 µM in assay [1] and 0.023 µM in assay [2].

On to `COc1ccc2c(ccn2C[C@H]2CC[C@H](C(=O)N3OCC[C@H]3c3cc(F)cc(C#N)c3)CC2)n1` [compound 120, trans-3-fluoro-5-[(3S)-2-[4-[(5-methoxypyrrolo[3,2-b]pyridin-1-yl)methyl]cyclohexanecarbonyl]isoxazolidin-3-yl]benzonitrile], for which the IC50 in assay [1] is 0.006 µM; in assay [2], 0.041 µM.

With `N#Cc1cc(F)cc([C@@H]2CCON2C(=O)[C@H]2CC[C@H](Cn3ccc4ncc(OC5COC5)cc43)CC2)c1` [compound 146, trans-3-fluoro-5-[(3S)-2-[4-[[6-(oxetan-3-yloxy)pyrrolo[3,2-b]pyridin-1-yl]methyl]cyclohexanecarbonyl]isoxazolidin-3-yl]benzonitrile], the figures for the IC50 in assay [1] and in assay [2] were 0.026 µM and 0.028 µM, respectively.
